Laboratory results reported in US20180344690A1, “Methods and Formulation for Enhancing Response to Radiotherapy” (The Board of Trustees of the Leland Stanford Junior …, priority 2017, published 2018).
Like-named read-outs stand apart in the source and are kept apart here.

How the values were obtained:
CD34+ cell mobilization = settings: cited from earlier work
AML = settings: cited from earlier work
[1] = cited from earlier work
[2] = cited from earlier work; remark: listed apart in the source
[3] = Preclinical animal toxicology studies; settings: in vivo
[4] = test system: peripheral blood (PB) CD34+ counts; settings: cited from earlier work; for absolute CD34+ cell count (mean+/−SE): all patients

c1cc(CN2CCCNCCNCCCNCC2)ccc1CN1CCCNCCNCCCNCC1 [Plerixafor]
most frequently reported adverse effects (CD34+ cell mobilization; human, in vivo): injection site reactions, gastrointestinal (GI) effects, paresthesias, and headaches
augmentation of CD34+ cell mobilization by G-CSF (CD34+ cell mobilization; on average): 3.8 fold
safety and tolerability (CD34+ cell mobilization; single SC dose 160 or 240 μg/kg alone or added to G-CSF): generally safe and well-tolerated
early death due to complications from infection (AML; 2 patients): 6%
treatment failure due to persistent disease (AML; 14 patients): 44%
complete remission (CR+CRi) (AML; 32 evaluable patients at 240 μg/kg, historical CR rates 25-35%): 50%
platelet recovery (plt >50 k/mm3), median (AML; Plerixafor + MEC, range 20-40 d): 26 days
neutrophil recovery (ANC >500/mm3), median (AML; Plerixafor + MEC, range 21-37): 27 days
time of peak AML blast mobilization (AML; after administration): 6 to 8 h
One year KM estimate of overall survival (AML; in vivo): 56%
common grade 3 adverse events (AML; in vivo): cytopenias and infections
hyperleukocytosis (AML; in vivo): No evidence of hyperleukocytosis
mobilization of AML blasts into the peripheral circulation, mean increase (AML; range 0.9-7.3 fold): 2.5 fold
median terminal half-life ([1]; 240 μg/kg SC with G-CSF): 4.6 h
time of peak plasma concentrations ([1]; 240 μg/kg SC with G-CSF, in most patients): 0.5 h
time of maximum fold increase in circulating cells ([1]; after Plerixafor injection, all patients): approximately 10 hours
median maximum increase in the number of circulating cells from baseline ([1]; range, 3.0- to 5.5-fold): 4.2 fold
MTD ([2]; animals, adverse neurologic effects): approximately 70 mg/m^2
dose limiting toxicities (DLTs) ([2]; including severe dyspnea, tremors, ventral recumbency, convulsions at higher dosages): primarily adverse neurologic events
approximate human equivalent dose of early adverse neurologic effects [3]: 470-940 μg/kg
total white blood cell (WBC) and peripheral blood (PB) CD34+ counts ([4]; 4 and 6 hours following a single injection): rapid and statistically significant increase
absolute CD34+ cell count (mean+/−SE) ([4]; 4 hours after injection, baseline 2.6+/−0.7/μL, P=0.002): 15.6 ± 3.9 µL⁻¹
absolute CD34+ cell count ([4]; 4 hours, 160 μg/kg group): 11.3 ± 2.7 µL⁻¹
absolute CD34+ cell count ([4]; 4 hours, 240 μg/kg group): 19.3 ± 6.9 µL⁻¹
absolute CD34+ cell count (mean+/−SE) ([4]; 6 hours after injection, P=0.003): 16.2 ± 4.3 µL⁻¹
absolute CD34+ cell count ([4]; 6 hours, 160 μg/kg group): 11.3 ± 2.5 µL⁻¹
absolute CD34+ cell count ([4]; 6 hours, 240 μg/kg group): 20.4 ± 7.6 µL⁻¹
toxicities ([4]; single injection 160 or 240 μg/kg): only grade 1 toxicities were observed
